Data: patent publication US20210156844A1, “TMEM16A Modulation for Diagnostic or Therapeutic Use in Pulmonary Hypertension (PH)” (Bayer Aktiengesellschaft, priority 2017, published 2021)

What was measured:
[1] = system: U-46619 preconstricted isolated mouse PA; experiment: Measurement of pulmonary artery tone ex vivo
Experimental: Pulmonary artery rings were isolated from male C57BL/6J mice (20-25 weeks old, Charles River, Wilmington Mass., USA), as described by Jain et al. (Jain, P P, et al., Int. J. Nanomedicine (2014) 9, 3249-3261). Following stable contraction (approx. 30 minutes post-addition of U-46619, 30 nM), the arteries were subjected to cumulatively increasing concentrations (0.1 to 30 μM) of the TMEM6A blockers T16Ainh-A01 (Tocris) and benzbromarone (Sigma) in order to analyze the concentration-response relationships.

[2] = system: monocrotaline treated rats; experiment: Monocrotaline treated rats, chronic treatment with slow-release pellets; assay type: in vivo, rat
Experimental: Male Sprague-Dawley rats (body weight: approx. 250 g, Charles River) received a single subcutaneous injection of monocrotaline (MCT, 60 mg/kg, n=16) or vehicle (control group, n=8). Since significant RVSP increase and PA muscularization had been detected as early as 12 days after the injection of MCT58, two weeks after monocrotaline treatment rats were randomly ordered into two groups. Subcutaneous slow-release pellets (Innovative Research of America) that contained either benzbromarone (MCT+BBR, n=8) or vehicle (MCT+Veh, n=8) were implanted. Four weeks after monocrotaline treatment all rats were subjected to echocardiography and in vivo hemodynamic measurements, thereafter they were sacrificed for organ collection.
Echocardiographic measurements were performed using a Vevo 770 High Resolution Imaging System with a 30 MHz RMV-707B scan head (VisualSonics, Toronto, Canada) as previously reported (Egemnazarov, B, et al., J. Am. Soc. Echocardiogr. (2015) 28, 828-843). Briefly, animals were mounted on a heated pad and kept under anaesthesia with isoflurane 0.8-1.2%. Chest hair was depilated and a layer of sonographic coupling gel was applied to the thorax. RV internal diameter (RVID) and free wall thickness (RVFW) from the left parasternal long axis view were measured in M-mode and 2-D modalities. RV outflow tract was visualized from the parasternal short axis view at the level of the aortic valve. From this view, pulse wave (PW) Doppler flow recordings of the pulmonary artery were obtained with the sample volume positioned at the tip of the pulmonary valve leaflets. Here, peak velocity, acceleration time (PAAT), and velocity-time integral (VTI) were measured. For every parameter, measurements were done for 4-5 cardiac cycles and results were averaged. Cardiac output was calculated as CO (mL/min)=(7.85×[RV outflow tract]2×pulmonary valve velocity-time integral×heart rate)/1,000. Cardiac index (CI) was obtained by normalizing cardiac output to body weight.
In rats, in vivo hemodynamic measurements were conducted as described above for the mice, with the exception that for the right ventricular and the systolic blood pressures, 2 F Millar Catheters (SPR-513 and SPR-320, respectively) were used.
At the end of the hemodynamic measurements, animals were exsanguinated and the heart and lungs were isolated. The right ventricle (RV) was dissected from the left ventricle+septum (LV+S) and both of them were weighed. Right ventricular hypertrophy was assessed by calculating the Fulton index, defined as RV weight/(LV+S weight).
Paraffin-embedded mouse and rat lung tissues were cut to 2 μm thin sections. Double immunohistochemical staining and quantification of the non-muscularized and muscularized arteries were made as previously described (Crnkovic, S, et al., Respir. Physiol. Neurobiol. (2011) 179, 342-345). Immunostained slides were scanned with an Olympus BX61VS microscope using the OlyVIA software (Olympus Austria GmbH, Vienna, Austria). Vessel remodeling in lung sections was quantified using semi-automated image analysis software (Visiopharm, Hoersholm, Denmark). Throughout the analysis, all samples were identified with number codes to blind the operator for the experimental group. The percentage of non-muscularized and muscularized pulmonary arteries, relative to the total number of pulmonary arteries, was calculated.
Serial sections from the same lungs were used to determine cell proliferation in the PA wall, as described by Zabini et al. (Zabini, D. et al., J. Cell. Mol. Med. (2015) 19, 1151-1161). Lung sections were labeled using a primary antibody against the proliferation marker PCNA (sc-7907, Santa Cruz). Immunostained slides were scanned with an Olympus BX61VS microscope equipped with the OlyVIA software (Olympus Austria GmbH, Vienna, Austria). Negative controls were performed with the omission of the primary antibody.

[3] = compared to the MCT+Veh group, week 4
[4] = slow-release pellet from two weeks after MCT, echocardiography at week 4

`CCc1oc2ccccc2c1C(=O)c1cc(Br)c(O)c(Br)c1` [benzbromarone, (2-Ethyl-3-benzofuranyl)-(3,5-dibrom-4-hydroxyphenyl)ketone] was tested, and the “vasorelaxation of preconstricted PA” value ([1]; cumulatively increasing concentrations 0.1 to 30 μM, U-46619 30 nM) was “dose-dependent vasorelaxation”, the “potency compared with T16Ainh-A01” value ([1]; ex vivo PA vasodilator response) was “more potent” and the “PCNA positive nuclei in the medial layer of the PA” value ([2]; MCT treated rats, lung sections (not shown)) was “reduced number”. The “number of fully muscularized arteries” value ([2]; MCT+BBR vs MCT+Veh) was “markedly reduced”, the “number of non-muscularized arteries” value ([2]; MCT+BBR vs MCT+Veh) was “increased” and the “RV hypertrophy (Fulton-index)” value [2, 3] was “significantly decreased”. For the same compound, the RVSP [2, 3] was “significantly decreased”, the “MCT-induced decrease in cardiac index (CI)” value [2, 4] was “completely reversed” and the “MCT-induced decrease in pulmonary artery acceleration time (PAAT)” value [2, 4] was “completely reversed”. For the same compound, the “MCT-induced increase in right ventricular free wall thickness (RVFW Thickness)” value [2, 4] was “completely reversed”.
